This is an account of results in PMC5154303, “Flavonol and imidazole derivatives block HPV16 E6 activities and reactivate apoptotic pathways in HPV^+ cells” (Cell Death & Disease, 2016).

Holding throughout (assay type): cell-based, human
The test system of one assay is UMSCC 29. Description: Sensitization to doxorubicin in HPV− HNSCC line UMSCC 29 (MTT). Conditions: HPV− #29, compound 0–12.5 μM, 2 μM doxorubicin. As to the method: Figure 8 Myricetin and spinacine (5) can re-sensitize HPV^+, but not HPV^−, HNSCC cell lines to treatment with doxorubicin. Two HPV^− (UMMSCC 29 and SCC 84) and three HPV^+ (UMSCC 47, UPCI-SCC90-UP-Clone 35, and UM-SCC47-TC Clone 3) head and neck cancer cell lines (2 × 10^4 cells per well) were seeded into 96-well plates and allowed to incubate overnight, and then cells were pretreated with myricetin or spinacine (0–12.5 μM) for 4 h. In all, 2 μM of doxorubicin was added, and the cells were allowed to incubate overnight. Cell viability was measured by MTT assay, and the viability of cells untreated with small molecules was set at 100%. Experiments were performed in triplicate, and error bars indicate the S.D.
(§1) The extracellular domain of human TRAIL was cloned into a pTriEx expression plasmid containing N-terminal Hisx6 tag. His-TRAIL was expressed in the E. coli BL-21 pLys strain and purified as previously described. Doxorubicin and cisplatin were purchased from Sigma. His-TRAIL, doxorubicin, and cisplatin were diluted in PBS to the desired concentration before using. […] All experiments were repeated at least three times (three biological replicates, carried out on different days), with each experimental group measured in triplicate within each of these individual experiments. […]

The test system of a further assay is caspase 8. Description: Caspase 8 level in SiHa cells by immunoblot. Conditions: 24 h. As to the method:
Figure 6 Treatment with myricetin and spinacine (5) increases cellular levels of caspase 8 and p53. (a) SiHa cells (1 × 10^6 per well) were seeded into a six-well plate and allowed to incubate overnight. The indicated concentrations of myricetin and spinacine were added, and then cells were incubated for 24 h. Cells were then washed in 1 × PBS and then harvested, and the resulting level of caspase 8 was measured by immunoblot. (b) SiHa and C33A cells (1 × 10^6 per well) were seeded into a six-well plate and allowed to incubate overnight. In all, 200 μM of myricetin and 100 μM spinacine were added together with 4 μg/ml mitomycin C and incubated for 24 h. The resulting level of p53 was measured by enzyme-linked immunosorbent assay, and the level of p53 found in untreated cells was set at 100%. Experiments were performed in triplicate, and error bars indicate the S.D.
Cells (1 × 10^6) were collected and washed with PBS. All liquid was removed by centrifugation at 3000 r.p.m. for 5 min at 4 °C. […] Signals were measured using the Odyssey Infrared Imaging system (LI-COR Biosciences) and expressed in relative light units.
For orientation: A western blot detects proteins with antibodies after separation by electrophoresis.

For a further assay, the system named is SCC84. Description: TRAIL-induced cell death in HPV− HNSCC line SCC84 (MTT). The settings on record: HPV− #84, myricetin 0–200 μM or spinacine 0–100 μM, 50 ng/ml TRAIL. Here is the method: (§2) Figure 7 Myricetin and spinacine (5) can re-sensitize HPV^+, but not HPV^−, head and neck cancer cell lines to treatment with TRAIL. (a) Both HPV^− and HPV^+ HN cancer cell lines display resistance to TRAIL treatment. (b) HPV^− (UMSCC 29 and SCC 84) and (c) HPV^+ (UMSCC 47, UPCI-SCC90-UP-Clone 35, and UM-SCC47-TC-Clone 3) head and neck cancer cell lines (2 × 10^4 cells per well) were seeded into 96-well plates and allowed to incubate overnight, and then cells were pretreated with myricetin (0–200 μM) or spinacine (0–100 μM) for 4 h. […] Cell viability was measured by the MTT assay, and the viability of cells untreated with small molecules was set at 100%. Experiments were performed in triplicate, and error bars indicate the S.D.
as §1

The next assay deals with UMSCC29. Kind of assay: TRAIL-induced cell death in HPV− HNSCC line UMSCC29 (MTT). The settings on record: HPV− #29, myricetin 0–200 μM or spinacine 0–100 μM, 50 ng/ml TRAIL. Here is the method:
as §2, §1

The next assay relates to SiHa cells. Description: Sensitization of SiHa cells to cisplatin (MTT). Conditions: 100 μM myricetin or 50 μM spinacine 4 h prior to cisplatin, versus negative control. Here is the method: Figure 3 (a) HPV^+ SiHa cells are resistant to TRAIL-induced apoptosis as compared with the human osteosarcoma cell line U2OS. Cells (2 × 10^4 cells per well) were seeded into a 96-well plate, allowed to incubate overnight, and then treated with the indicated concentration of TRAIL in the presence of cycloheximide (5 μg/ml). The viability of cells was measured after overnight incubation using the MTT assay; the viability of cells untreated with TRAIL was set at 100% for each group. (b) The indicated concentrations of three small molecules were added to SiHa cells, and an MTT assay was preformed after overnight incubation. The viability of cells untreated with small molecules was set as 100%. (c) The indicated concentrations of myricetin or spinacine were added 4 h prior to TRAIL (100 ng/ml) in the presence of cycloheximide (5 μg/ml) and incubated at 37 °C overnight. […] Cell viability was measured after overnight incubation using the MTT assay, and the viability of cells untreated with either myricetin or spinacine was set at 100%. […]
The extracellular domain of human TRAIL was cloned into a pTriEx expression plasmid containing N-terminal Hisx6 tag. […] All experiments were repeated at least three times (three biological replicates, carried out on different days), with each experimental group measured in triplicate within each of these individual experiments. […]

For `O=c1c(O)c(-c2cc(O)c(O)c(O)c2)oc2cc(O)cc(O)c12` [Myricetin, myricetin, reference compound], in the assay on UMSCC 29, the “response to doxorubicin in presence and absence of compound” value is “resistant”. The “caspase 8 level” value in the assay on caspase 8 (myricetin at 100 and 200 μM) is recorded as “increase”. The “response to TRAIL in presence and absence of compound” value in the assay on SCC84 and with UMSCC29 was “resistant” in each case. The “sensitivity of SiHa cells to cisplatin” value with SiHa cells is “increased the sensitivity”.
In the case of `O=C(O)C1Cc2[nH]cnc2CN1` (stereo not shown) [Spinacine (5), 4,5,6,7-tetrahydro-1H-imidazo[4,5–c]pyridine-6-carboxylic acid], the “response to doxorubicin in presence and absence of compound” value in the assay with UMSCC 29 was “resistant”. In the assay on caspase 8 (spinacine at 50 to 200 μM), the “caspase 8 level” value is on record as “increase”. Besides, the “response to TRAIL in presence and absence of compound” value in the assay with SCC84 and in the assay with UMSCC29 was “resistant” each time. Also, the “sensitivity of SiHa cells to cisplatin” value in the assay with SiHa cells was “increased the sensitivity”.
